Data published in the NIST ThermoML archive (doi:10.1021/acs.jced.6b00516).
± gives the expanded uncertainty stated by the source.

Assay: wn = mass fraction of the nth substance listed
Settings: 102 kPa, Liquid, Vibrating tube method

CCCCC1CCCCC1 [butylcyclohexane] + Cc1ccccc1
mass density (293.15 K, w1 = 0.1002): 858.58 ± 0.1 kg/m3
mass density (293.15 K, w1 = 0.2175): 849.42 ± 0.1 kg/m3
mass density (293.15 K, w1 = 0.3001): 843.23 ± 0.1 kg/m3
mass density (293.15 K, w1 = 0.3999): 835.97 ± 0.1 kg/m3
mass density (293.15 K, w1 = 0.5): 829.25 ± 0.1 kg/m3
mass density (293.15 K, w1 = 0.6001): 822.67 ± 0.11 kg/m3
mass density (293.15 K, w1 = 0.6995): 816.44 ± 0.11 kg/m3
mass density (293.15 K, w1 = 0.8001): 810.43 ± 0.11 kg/m3
mass density (293.15 K, w1 = 0.8996): 804.75 ± 0.11 kg/m3
mass density (303.15 K, w1 = 0.1002): 849.47 ± 0.1 kg/m3
mass density (303.15 K, w1 = 0.2175): 840.53 ± 0.1 kg/m3
mass density (303.15 K, w1 = 0.3001): 834.5 ± 0.1 kg/m3
mass density (303.15 K, w1 = 0.3999): 827.42 ± 0.11 kg/m3
mass density (303.15 K, w1 = 0.5): 820.88 ± 0.11 kg/m3
mass density (303.15 K, w1 = 0.6001): 814.48 ± 0.11 kg/m3
mass density (303.15 K, w1 = 0.6995): 808.43 ± 0.11 kg/m3
mass density (303.15 K, w1 = 0.8001): 802.58 ± 0.11 kg/m3
mass density (303.15 K, w1 = 0.8996): 797.08 ± 0.11 kg/m3
mass density (313.15 K, w1 = 0.1002): 840.29 ± 0.1 kg/m3
mass density (313.15 K, w1 = 0.2175): 831.58 ± 0.1 kg/m3
mass density (313.15 K, w1 = 0.3001): 825.72 ± 0.11 kg/m3
mass density (313.15 K, w1 = 0.3999): 818.82 ± 0.11 kg/m3
mass density (313.15 K, w1 = 0.5): 812.46 ± 0.11 kg/m3
mass density (313.15 K, w1 = 0.6001): 806.25 ± 0.11 kg/m3
mass density (313.15 K, w1 = 0.6995): 800.37 ± 0.11 kg/m3
mass density (313.15 K, w1 = 0.8001): 794.7 ± 0.12 kg/m3
mass density (313.15 K, w1 = 0.8996): 789.37 ± 0.12 kg/m3
mass density (323.15 K, w1 = 0.1002): 831.04 ± 0.1 kg/m3
mass density (323.15 K, w1 = 0.2175): 822.57 ± 0.11 kg/m3
mass density (323.15 K, w1 = 0.3001): 816.86 ± 0.11 kg/m3
mass density (323.15 K, w1 = 0.3999): 810.17 ± 0.11 kg/m3
mass density (323.15 K, w1 = 0.5): 803.99 ± 0.11 kg/m3
mass density (323.15 K, w1 = 0.6001): 797.96 ± 0.11 kg/m3
mass density (323.15 K, w1 = 0.6995): 792.27 ± 0.12 kg/m3
mass density (323.15 K, w1 = 0.8001): 786.78 ± 0.12 kg/m3
mass density (323.15 K, w1 = 0.8996): 781.62 ± 0.12 kg/m3
mass density (333.15 K, w1 = 0.1002): 821.72 ± 0.11 kg/m3
mass density (333.15 K, w1 = 0.2175): 813.48 ± 0.11 kg/m3
mass density (333.15 K, w1 = 0.3001): 807.94 ± 0.11 kg/m3
mass density (333.15 K, w1 = 0.3999): 801.44 ± 0.11 kg/m3
mass density (333.15 K, w1 = 0.5): 795.45 ± 0.12 kg/m3
mass density (333.15 K, w1 = 0.6001): 789.62 ± 0.12 kg/m3
mass density (333.15 K, w1 = 0.6995): 784.11 ± 0.12 kg/m3
mass density (333.15 K, w1 = 0.8001): 778.81 ± 0.12 kg/m3
mass density (333.15 K, w1 = 0.8996): 773.83 ± 0.12 kg/m3
mass density (343.15 K, w1 = 0.1002): 812.2 ± 0.2 kg/m3
mass density (343.15 K, w1 = 0.2175): 804.3 ± 0.2 kg/m3
mass density (343.15 K, w1 = 0.3001): 798.8 ± 0.2 kg/m3
mass density (343.15 K, w1 = 0.3999): 792.6 ± 0.2 kg/m3
mass density (343.15 K, w1 = 0.5): 786.8 ± 0.2 kg/m3
mass density (343.15 K, w1 = 0.6001): 781.3 ± 0.2 kg/m3
mass density (343.15 K, w1 = 0.6995): 775.9 ± 0.2 kg/m3
mass density (343.15 K, w1 = 0.8001): 770.7 ± 0.2 kg/m3
mass density (343.15 K, w1 = 0.8996): 765.9 ± 0.2 kg/m3
mass density (353.15 K, w1 = 0.1002): 802.7 ± 0.2 kg/m3
mass density (353.15 K, w1 = 0.2175): 795.1 ± 0.2 kg/m3
mass density (353.15 K, w1 = 0.3001): 789.7 ± 0.2 kg/m3
mass density (353.15 K, w1 = 0.3999): 783.7 ± 0.2 kg/m3
mass density (353.15 K, w1 = 0.5): 778.1 ± 0.2 kg/m3
mass density (353.15 K, w1 = 0.6001): 772.8 ± 0.2 kg/m3
mass density (353.15 K, w1 = 0.6995): 767.5 ± 0.2 kg/m3
mass density (353.15 K, w1 = 0.8001): 762.6 ± 0.2 kg/m3
mass density (353.15 K, w1 = 0.8996): 758 ± 0.2 kg/m3

CCCCC1CCCCC1 [butylcyclohexane] + CCCCCCCCCCCCCCCC
mass density (293.15 K, w1 = 0.1002): 775.85 ± 0.16 kg/m3
mass density (293.15 K, w1 = 0.2): 778.23 ± 0.16 kg/m3
mass density (293.15 K, w1 = 0.3001): 780.67 ± 0.16 kg/m3
mass density (293.15 K, w1 = 0.3998): 783.16 ± 0.15 kg/m3
mass density (293.15 K, w1 = 0.4998): 785.72 ± 0.15 kg/m3
mass density (293.15 K, w1 = 0.6001): 788.34 ± 0.15 kg/m3
mass density (293.15 K, w1 = 0.7): 791.01 ± 0.15 kg/m3
mass density (293.15 K, w1 = 0.7999): 793.72 ± 0.15 kg/m3
mass density (293.15 K, w1 = 0.8998): 796.48 ± 0.15 kg/m3
mass density (303.15 K, w1 = 0.1002): 768.9 ± 0.16 kg/m3
mass density (303.15 K, w1 = 0.2): 771.24 ± 0.16 kg/m3
mass density (303.15 K, w1 = 0.3001): 773.65 ± 0.16 kg/m3
mass density (303.15 K, w1 = 0.3998): 776.08 ± 0.16 kg/m3
mass density (303.15 K, w1 = 0.4998): 778.59 ± 0.16 kg/m3
mass density (303.15 K, w1 = 0.6001): 781.15 ± 0.15 kg/m3
mass density (303.15 K, w1 = 0.7): 783.74 ± 0.15 kg/m3
mass density (303.15 K, w1 = 0.7999): 786.38 ± 0.15 kg/m3
mass density (303.15 K, w1 = 0.8998): 789.06 ± 0.15 kg/m3
mass density (313.15 K, w1 = 0.1002): 761.94 ± 0.17 kg/m3
mass density (313.15 K, w1 = 0.2): 764.25 ± 0.16 kg/m3
mass density (313.15 K, w1 = 0.3001): 766.6 ± 0.16 kg/m3
mass density (313.15 K, w1 = 0.3998): 768.99 ± 0.16 kg/m3
mass density (313.15 K, w1 = 0.4998): 771.43 ± 0.16 kg/m3
mass density (313.15 K, w1 = 0.6001): 773.92 ± 0.16 kg/m3
mass density (313.15 K, w1 = 0.7): 776.44 ± 0.16 kg/m3
mass density (313.15 K, w1 = 0.7999): 779 ± 0.15 kg/m3
mass density (313.15 K, w1 = 0.8998): 781.6 ± 0.15 kg/m3
mass density (323.15 K, w1 = 0.1002): 754.99 ± 0.17 kg/m3
mass density (323.15 K, w1 = 0.2): 757.24 ± 0.17 kg/m3
mass density (323.15 K, w1 = 0.3001): 759.55 ± 0.17 kg/m3
mass density (323.15 K, w1 = 0.3998): 761.87 ± 0.16 kg/m3
mass density (323.15 K, w1 = 0.4998): 764.25 ± 0.16 kg/m3
mass density (323.15 K, w1 = 0.6001): 766.67 ± 0.16 kg/m3
mass density (323.15 K, w1 = 0.7): 769.12 ± 0.16 kg/m3
mass density (323.15 K, w1 = 0.7999): 771.6 ± 0.16 kg/m3
mass density (323.15 K, w1 = 0.8998): 774.12 ± 0.16 kg/m3
mass density (333.15 K, w1 = 0.1002): 748.02 ± 0.17 kg/m3
mass density (333.15 K, w1 = 0.2): 750.22 ± 0.17 kg/m3
mass density (333.15 K, w1 = 0.3001): 752.47 ± 0.17 kg/m3
mass density (333.15 K, w1 = 0.3998): 754.73 ± 0.17 kg/m3
mass density (333.15 K, w1 = 0.4998): 757.04 ± 0.17 kg/m3
mass density (333.15 K, w1 = 0.6001): 759.39 ± 0.17 kg/m3
mass density (333.15 K, w1 = 0.7): 761.76 ± 0.16 kg/m3
mass density (333.15 K, w1 = 0.7999): 764.16 ± 0.16 kg/m3
mass density (333.15 K, w1 = 0.8998): 766.6 ± 0.16 kg/m3
mass density (343.15 K, w1 = 0.1002): 741.1 ± 0.18 kg/m3
mass density (343.15 K, w1 = 0.2): 743.2 ± 0.17 kg/m3
mass density (343.15 K, w1 = 0.3001): 745.35 ± 0.17 kg/m3
mass density (343.15 K, w1 = 0.3998): 747.5 ± 0.17 kg/m3
mass density (343.15 K, w1 = 0.4998): 749.8 ± 0.17 kg/m3
mass density (343.15 K, w1 = 0.6001): 752.1 ± 0.17 kg/m3
mass density (343.15 K, w1 = 0.7): 754.35 ± 0.17 kg/m3
mass density (343.15 K, w1 = 0.7999): 756.6 ± 0.2 kg/m3
mass density (343.15 K, w1 = 0.8998): 759 ± 0.16 kg/m3
mass density (353.15 K, w1 = 0.1002): 734.1 ± 0.2 kg/m3
mass density (353.15 K, w1 = 0.2): 736.1 ± 0.2 kg/m3
mass density (353.15 K, w1 = 0.3001): 738.3 ± 0.2 kg/m3
mass density (353.15 K, w1 = 0.3998): 740.3 ± 0.2 kg/m3
mass density (353.15 K, w1 = 0.4998): 742.5 ± 0.2 kg/m3
mass density (353.15 K, w1 = 0.6001): 744.7 ± 0.2 kg/m3
mass density (353.15 K, w1 = 0.7): 746.9 ± 0.2 kg/m3
mass density (353.15 K, w1 = 0.7999): 749.1 ± 0.2 kg/m3
mass density (353.15 K, w1 = 0.8998): 751.4 ± 0.2 kg/m3
